{"source": "patent US9539219B2", "about": "“Pharmaceutical compositions of carotenoid chylomicrons” (HEALTH-EVER BIOTECH CO. LTD, priority 2013, dated 2017)", "key": {"[1]": {"assay": "Pharmacokinetic study of the chylomicron and micelle compositions in rats (gavage and i.v.)", "assay_type": "in vivo, male Sprague-Dawley rats", "conditions": "rat", "protocol": "The pharmacokinetic properties of the pharmaceutical composition prepared in Example 1 and the pharmaceutical composition prepared in Example 2 were assessed in male Sprague-Dawley rats.\nA total of 24 rats (all rats with body weight of about 280 g each) were divided into two groups with 12 each, one received oral administration (gavage) while the other received intravenous (i.v.) injection.\nThe pharmaceutical composition in Example 1 and the pharmaceutical composition in Example 2 were administered via gavage and intravenous (IV) injection. An equivalent of 1.43 mg/kg of solanorubin was given by IV route (one-tenth of oral dosage) and an equivalent of 14.3 mg/kg of solanorubin was administered orally.\nBlood samples were collected via the tail vein of the rats at the following time intervals: 2 minutes, 5 minutes, 10 minutes, 30 minutes, 1 hour, 2 hours, 4 hours, 8 hours, 24 hours, 48 hours and 72 hours after the composition was administered.\nPharmacokinetic study was carried out using the WinNonlin software system (Pharsight Co, Mountain View, Calif., USA) by non-compartmental model. The area under the drug concentration-time curve (AUC) was used to determine total amount of all-trans-solanorubin, cis-solanorubin, octohydrogenosolanorubin and hexahydrogenosolanorubin to reach the systematic circulation. Some other kinetic parameters such as Cmax, Tmax, and t1/2 were measured as well. The absolute bioavailability of trans-solanorubin, cis-solanorubin, octohydrogenosolanorubin and hexahydrogenosolanorubin was calculated using the following formula: […]\nAll the data were subjected to analysis of variance and Duncan's multiple range test using Statistical Analysis Software (SAS)^16 for statistical significance at P<0.05."}, "[2]": {"assay": "Stability at pH 2.0, 3.5, 6.0, 6.8 and 7.4", "assay_type": "physicochemical", "conditions": "pH 2.0, 3.5, 6.0, 6.8 and 7.4 for 1, 2, 4, 6, 12 or 24 h; for Change in concentration in micelles at different pH: micelle", "protocol": "(§1) Likewise, when chylomicron was stored at pH 2.0, 3.5, 6.0, 6.8 and 7.4 for 1, 2, 4, 6, 12 or 24 h, the stability of solanorubin, octohydrogenosolanorubin and hexahydrogenosolanorubin was maintained. The encapsulation efficiency of solanorubin in chylomicron was assessed to be approximately 80%.\n(§2) The average size of the micelle, based on DLS and TEM analyses, was approximately 7.5 nm, with spherical shape and transparent appearance. […] Also, the mean values of solanorubin, octohydrogenosolanorubin and hexahydrogenosolanorubin were ranged from 0.34-0.38 mg/mL, 0.03-0.04 mg/mL and 0.03-0.04 mg/mL, respectively, during storage or heating under the same condition. […] The encapsulation efficiency of solanorubin in micelle was determined to be about 78%."}, "[3]": {"conditions": "rat, Faisal et al. J. Pharm. Pharmacol. 2010, cited from earlier work"}, "[4]": {"assay": "Stability during storage at 4° C. or 25° C. for 3 months or heating at 100° C. for 4 h", "assay_type": "physicochemical", "conditions": "4° C. or 25° C. for 3 months or 100° C. for 4 h", "protocol": "as §1, §2"}, "[5]": {"conditions": "cited from earlier work"}, "[6]": {"assay": "Encapsulation efficiency", "assay_type": "physicochemical", "protocol": "as §1, §2"}, "[7]": {"assay": "Pre-experiments on saturation of absorption (dose selection)", "assay_type": "in vivo", "conditions": "several pre-experiments"}, "[8]": {"conditions": "male, Sprague-Dawley, in vivo, po, 14.3 mg/kg"}}, "note": "Like-named read-outs stand apart in the source and are kept apart here."}
{"smiles": "CC(C)=CCC/C(C)=C/CC/C(C)=C/CC/C(C)=C/C=C/C=C(\\C)CC/C=C(\\C)CC/C=C(\\C)CCC=C(C)C", "note": "[Octohydrogenosolanorubin, octohydrogenosolanorubin]", "values": [{"measurement": "AUC higher for IV administered micelle composition compared to IV administered chylomicron composition (difference)", "setting": "[1]; in vivo, iv, 1.43 mg/kg", "result": 311, "unit": "µg·min/mL"}, {"measurement": "Cmax of IV administered micelle composition, fold higher than IV administered chylomicron composition", "setting": "[1]; in vivo, iv, 1.43 mg/kg", "result": 5.9, "unit": "fold"}, {"measurement": "Cmax", "setting": "[1]; in vivo, po, 14.3 mg/kg", "result": 60, "unit": "ng/mL"}, {"measurement": "Change in concentration in micelles at different pH", "setting": "[2]", "result": "only a minor change"}]}
{"smiles": "CC(C)=CCC/C(C)=C/C=C/C(C)=C/C=C/C(C)=C/C=C/C=C(C)/C=C/C=C(C)/C=C/C=C(\\C)CCC=C(C)C", "note": "[Solanorubin, solanorubin]", "values": [{"measurement": "Bioavailability of solanorubin not encapsulated / from natural sources", "setting": "[3]", "result": "about 1.85%"}, {"measurement": "Bioavailability of solanorubin not encapsulated / from natural sources", "setting": "[3]; listed as non-encapsulated solanorubin", "result": 1.85, "unit": "%"}, {"measurement": "Cmax of IV administered micelle composition, fold higher than IV administered chylomicron composition", "setting": "[1]; IV 1.43 mg/kg BW", "result": 7.8, "unit": "fold"}, {"measurement": "AUC", "setting": "[1]; male, Sprague-Dawley, in vivo, IV 1.43 mg/kg BW, read-out: AUC higher for IV administered micelle composition compared to IV administered chylomicron composition (difference) (converted)", "result": 3380, "unit": "ng·h/mL"}, {"measurement": "bioavailability", "setting": "[1]; male, Sprague-Dawley, in vivo, 14.3 mg/kg", "result": 9.5, "unit": "%"}, {"measurement": "bioavailability", "setting": "[1]; male, Sprague-Dawley, in vivo, 14.3 mg/kg, Bioavailability", "result": 6.8, "unit": "%"}, {"measurement": "AUC", "setting": "[1]; male, Sprague-Dawley, in vivo, iv, 1.43 mg/kg", "result": "12200 ± 1400", "unit": "ng·h/mL"}, {"measurement": "AUC", "setting": "[1]; male, Sprague-Dawley, in vivo, iv, 1.43 mg/kg, AUC", "result": 8830, "unit": "ng·h/mL"}, {"measurement": "Tmax", "setting": "[1]; male, Sprague-Dawley, in vivo, iv, 1.43 mg/kg, Tmax", "result": 0.0333, "unit": "h"}, {"measurement": "AUC", "setting": "[1]; [8]", "result": 8380, "unit": "ng·h/mL"}, {"measurement": "Cmax", "setting": "[1]; [8]", "result": 180, "unit": "ng/mL"}, {"measurement": "Tmax", "setting": "[1]; [8]", "result": 4, "unit": "h"}, {"measurement": "t1/2", "setting": "[1]; [8]", "result": "33.63 ± 5.43", "unit": "h"}, {"measurement": "AUC", "setting": "[1]; male, Sprague-Dawley, in vivo, po, 14.3 mg/kg, AUC", "result": 8270, "unit": "ng·h/mL"}, {"measurement": "Cmax", "setting": "[1]; male, Sprague-Dawley, in vivo, po, 14.3 mg/kg, Cmax", "result": 270, "unit": "ng/mL"}, {"measurement": "Tmax", "setting": "[1]; male, Sprague-Dawley, in vivo, po, 14.3 mg/kg, Tmax", "result": 2, "unit": "h"}, {"measurement": "half-life", "setting": "[1]; male, Sprague-Dawley, in vivo, po, 14.3 mg/kg, t1/2", "result": "28.9 ± 3.3", "unit": "h"}, {"measurement": "Stability of the carotenoid in chylomicron (change in concentration)", "setting": "[4]; chylomicron", "result": "high stability"}, {"measurement": "Mean concentration during storage or heating", "setting": "[4]; micelle", "result": "340000 to 380000", "unit": "ng/mL"}, {"measurement": "Solubility in water", "setting": "[5]", "result": "insoluble in water"}, {"measurement": "Solubility in water", "setting": "[5]; listed as solanorubin", "result": "practically insoluble in water"}, {"measurement": "Stability of the carotenoid in chylomicron at different pH", "setting": "[2]; chylomicron", "result": "maintained"}, {"measurement": "Change in concentration in micelles at different pH", "setting": "[2]", "result": "only a minor change"}, {"measurement": "Encapsulation efficiency", "setting": "[6]; solanorubin in chylomicron", "result": "approximately 80%"}, {"measurement": "Encapsulation efficiency", "setting": "[6]; solanorubin in micelle", "result": "about 78%"}]}
{"smiles": "CC(C)=CCCC(C)=CCCC(C)=CC=CC(C)=CC=CC=C(C)CCC=C(C)CCC=C(C)CCC=C(C)C", "note": "[Hexahydrogenosolanorubin, hexahydrogenosolanorubin]", "values": [{"measurement": "AUC higher for IV administered micelle composition compared to IV administered chylomicron composition (difference)", "setting": "[1]; in vivo, iv, 1.43 mg/kg", "result": 544, "unit": "µg·min/mL"}, {"measurement": "Cmax of IV administered micelle composition, fold higher than IV administered chylomicron composition", "setting": "[1]; in vivo, iv, 1.43 mg/kg", "result": 9.6, "unit": "fold"}, {"measurement": "Tmax", "setting": "[1]; in vivo, iv, 1.43 mg/kg", "result": 0.033, "unit": "h"}, {"measurement": "Change in concentration in micelles at different pH", "setting": "[2]", "result": "only a minor change"}]}
{"smiles": "CC(C)=CCC/C(C)=C/C=C/C(C)=C/C=C/C(C)=C/C=C/C=C(C)/C=C/C=C(C)/C=C/C=C(\\C)CCC=C(C)C", "note": "[lycopene]", "values": [{"measurement": "Dose above which saturation of absorption may occur", "setting": "[7]", "result": "higher than 14.3 mg/kg BW"}]}
